Test results from patent US8033977B2, “Methods of enhancing radiation effects with metal nanoparticles” (NanoProbes, Inc., priority 1998, dated 2011).

What was measured:
[1] = system: CD1 mice; test: In vivo tolerance of tungsten heteropolyanions in mice; settings: injected into CD1 mice
Procedure: A column containing carboxymethyl cellulose medium was prepared and charged with tetramethylammonium acetate, then rinsed with deionized water. Silicotungstic acid (H4SiW12O40.30H2O, 10 mg/ml in water) was injected onto the column and ion exchanged to produce the cluster surrounded and charge-shielded by quaternary ammonium ions.
A complex between the quaternary cation, tetramethylammonium was also formed by mixing equimolar amounts of H4SiW12O40.30H2O, 10 mg/ml in water and tetramethylammonium bromide, 100 mg/ml in water. Some white precipitate was formed that was removed by centrifugation at 13 k×g for 10 minutes, then filtering through a molecular filter, Amicon Centricon 30, that only passes molecules less than 30,000 Daltons. […] Dilutions were prepared and injected into CD1 mice. Good tolerance and normal weight gain was found at blood concentrations of approximately 5 mg/ml, whereas the uncomplexed heteropoltungstate was lethal at 1 mg/ml.

[2] = system: cellular DNA; settings: after incorporation into cellular DNA in vitro; 22-45% of thymine substituted; cited from earlier work
[3] = system: test animal tumor models; settings: co-administered with PALA, tetrahydrouridine and 5-fluoro-2′deoxyctidine, fractionated x-ray treatments; cited from earlier work

## Silicotungstic acid [uncomplexed heteropoltungstate]
[1]
  lethal blood concentration: 1 mg/mL

## O=c1[nH]c(=O)n([C@H]2C[C@H](O)[C@@H](CO)O2)cc1I [iododeoxyuridine]
[2]
  radiotherapeutic advantage (factor): about 3

## Nc1nc(=O)n([C@H]2C[C@H](O)[C@@H](CO)O2)cc1Cl [5-chloro-2′-deoxycytidine]
[3]
  dose enhancement: threefold
